In brackets after ≈: the same amount, converted by molar mass. Like-named read-outs stand apart in the source and are kept apart here. Each block holds one compound with its values, some of them ahead of it.
Assays:
[1] = target: T1, E. coli LpxA (Escherichia coli, UniProt P0A722); assay: SPE-MS detection of LpxA product; assay type: biochemical
T1 sequence (P0A722 1-262): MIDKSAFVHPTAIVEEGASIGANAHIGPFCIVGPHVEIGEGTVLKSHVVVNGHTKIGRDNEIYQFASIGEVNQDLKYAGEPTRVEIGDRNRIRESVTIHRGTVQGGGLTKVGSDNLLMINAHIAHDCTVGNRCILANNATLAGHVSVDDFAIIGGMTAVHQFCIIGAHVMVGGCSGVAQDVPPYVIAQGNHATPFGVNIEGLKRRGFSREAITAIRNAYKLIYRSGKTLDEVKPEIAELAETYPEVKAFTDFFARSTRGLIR

[2] = test system: VECO2526 E. coli ΔtolC; assay: microbe, parasite or virus in culture; conditions: Escherichia coli
[3] = test system: ATCC 25922 E. coli clinical isolates; assay: microbe, parasite or virus in culture; conditions: Escherichia coli
[4] = target: T1, E. coli LpxA; assay: SPR; assay type: binding
[5] = test system: MG1655 E. coli K-12; assay: microbe, parasite or virus in culture; conditions: Escherichia coli
[6] = target: T1, E. coli LpxA; assay: SPE-MS detection of LpxA product; assay type: biochemical; remark: listed apart in the source
[7] = test system: CDY0154 E. coli Δ9efflux; assay: microbe, parasite or virus in culture; conditions: Escherichia coli
[8] = target: T1, E. coli LpxA; assay: SPE-MS detection of LpxA product; assay type: biochemical; remark: listed apart in the source
[9] = test system: Escherichia coli TUP0115 ΔtolC pLacZα; assay: microbe, parasite or virus in culture; conditions: read-out: MIC
[10] = target: T1, E. coli LpxA; assay: SPR; assay type: binding; remark: listed apart in the source

- IC50 [1]: 2.9 µM
SMILES: Cc1ccnc(-c2cc(C(=O)N3CCOC[C@H]3Cc3ccccc3Cl)[nH]n2)c1 [compound 7]

- IC50 [8]: 11 µM
SMILES: COc1ccccc1C[C@@H]1COCCN1C(=O)c1cc(-c2cc(C)ccn2)n[nH]1 [compound 8]

- IC50 [1]: 2.5 µM
SMILES: COc1cccc(F)c1C[C@@H]1COCCN1C(=O)c1cc(-c2cc(C)ccn2)n[nH]1 [compound 9]

- IC50 [8]: 0.6 µM
SMILES: COc1cccc(Cl)c1C[C@@H]1COCCN1C(=O)c1cc(-c2cc(C)c(N)cn2)n[nH]1 [compound 13]

- IC50 [1]: 0.5 µM
SMILES: COc1cccc(Cl)c1C[C@@H]1COCCN1C(=O)c1cc(-c2cc(C)ccn2)n[nH]1 [compound 11]

The remaining lines, values behind:

SMILES: Cc1ccnc(-c2cc(C(=O)N3CCOC[C@H]3Cc3ccccn3)[nH]n2)c1 [compound 5]
- IC50 [1]: 86 µM

SMILES: Cc1ccnc(-c2cc(C(=O)N3CCOC[C@H]3Cc3ccccc3)[nH]n2)c1 [compound 2]
- MIC ([2]; read-out: MIC compound 2): 2 µg/mL (≈ 5.52 µM)
- MIC ([3]; ATCC25922, read-out: MIC compound 2): > 128 µg/mL
- Kd [4]: 110 µM
- MIC ([5]; MG1655, read-out: MIC compound 2): > 128 µg/mL
- IC50 [6]: 4.8 µM
- MIC ([7]; read-out: MIC compound 2): 2 µg/mL (≈ 5.52 µM)

SMILES: Cc1ccnc(-c2cc(C(=O)N3CCOC[C@@H]3Cc3ccccc3)[nH]n2)c1 [compound 12]
- IC50 [1]: 171 µM

SMILES: Cc1ccnc(-c2cc(C(=O)N3CCOC[C@H]3Cc3ccccc3F)[nH]n2)c1 [compound 6]
- IC50 [8]: 3 µM

SMILES: COc1ccc(C(=O)CN2C(=O)NC(c3ccccc3)(c3ccccc3)C2=O)cc1 [compound 1]
- MIC ([2]; read-out: MIC compound 1): 0.5 µg/mL (≈ 1.25 µM)
- MIC ([3]; ATCC25922, read-out: MIC compound 1): > 16 µg/mL
- MIC [9]: 0.5 µg/mL (≈ 1.25 µM)
- IC50 [1]: 1.4 µM
- MIC ([5]; MG1655, read-out: MIC compound 1): > 16 µg/mL
- Kd [10]: 0.1 µM
- MIC ([7]; read-out: MIC compound 1): 0.5 µg/mL (≈ 1.25 µM)

SMILES: C[C@@H](O)[C@H](NC(=O)c1ccc(C#Cc2ccc(CN3CCOCC3)cc2)cc1)C(=O)NO [CHIR-090]
- MIC ([2]; read-out: MIC CHIR-090): 0.015 µg/mL (≈ 0.0343 µM)
- MIC ([7]; read-out: MIC CHIR-090): 0.075 µg/mL (≈ 0.171 µM)

SMILES: Cc1ccnc(-c2cc(C(=O)N3CCOC[C@H]3C(C)C)[nH]n2)c1 [compound 4]
- IC50 [1]: 148 µM

SMILES: Cc1ccnc(-c2cc(C(=O)N3CCOCC3)[nH]n2)c1 [compound 3]
- IC50 [1]: > 250 µM

Reference: article doi:10.1101/850305v1 (biorxiv, 2019)
